Target: T1, Dimer of Gag-Pol polyprotein [489-587] (Human immunodeficiency virus 1, UniProt P12497)
T1 construct: 489-587
Test: Protease Inhibition Assay
Settings: pH 5.5; 37 °C
Method: Sensitivity of HIV-1 protease activity to protease inhibitors was determined by a peptide substrate cleavage assay. Protease products were analyzed on a reverse-phase high-pressure liquid chromatograph.

| SMILES | IC50 [nM] | Ki [nM] |
| --- | --- | --- |
| CC(C)(C)OC(=O)N[C@@H](Cc1ccccc1)[C@H](O)CNC[C@@H](O)[C@H](Cc1ccc(O)cc1)NC(=O)OC(C)(C)C [BMS-186318 analog 4] | 100 | – |
| CC(C)(C)OC(=O)N[C@@H](CC1CCCCC1)[C@H](O)CNC[C@@H](O)[C@H](CC1CCCCC1)NC(=O)OC(C)(C)C [(R,S)-[Iminobis[1-(cyclohexylmethyl)-2-hydroxy-3,1-propanediyl]]bis[carbamic acid], Bis(1,1-dimethylethylester)] | 800 | – |
| CC(C)(C)OC(=O)N[C@@H](CCc1ccccc1)[C@H](O)CNC[C@@H](O)[C@H](Cc1ccccc1)NC(=O)OC(C)(C)C [tert-butyl N-[(2S,3R)-4-{[(2R,3S)-3-{[(tert-butoxy)carbonyl]amino}-2-hydroxy-5-phenylpentyl]amino}-3-hydroxy-1-phenylbutan-2-yl]carbamate] | 500 | – |
| CC(C)(C)OC(=O)N[C@@H](Cc1ccccc1)[C@H](O)CNC[C@@H](O)[C@H](Cc1ccccc1)NC(=O)OC(C)(C)C [tert-butyl N-[(2S,3R)-4-{[(2R,3S)-3-{[(tert-butoxy)carbonyl]amino}-2-hydroxy-4-phenylbutyl]amino}-3-hydroxy-1-phenylbutan-2-yl]carbamate] | – | 100 |

Source: BindingDB's records for doi:10.1021/jm00038a005 (Bristol-Myers Squibb, 1994)
